Experiments:
P493-6 (myc "on") cells = test: Cell Proliferation Assay; type: cell-based; conditions: P493-6, 72 h, read-out: Cell prolif P493 72 h IC50, P493 cells, 72 h
Method in brief: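 P493-6 cells with myc on, 10,000 per well in RPMI/10% FBS, exposed to serially diluted compound (0.5% DMSO final) for 72 h at 37 °C, 5% CO2. Antiproliferative effect read by Cell Titer Glo luminescence or Viacount FACS viability count.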

HCT116 cells = test: Colon Carcinoma Xenograft Efficacy Study; type: in vivo, mice; conditions: intraperitoneal, twice daily, vs vehicle (FIG. 11)
Procedure: Female scid/bg mice, approximately 6 weeks of age, were implanted subcutaneously on the right flank with 5×10^6 HCT116 cells per mouse in a volume of 100 uL of sterile PBS. When tumors reached a volume of 50-100 mm^3, mice were randomized to groups of n=10 to receive either vehicle or test compound delivered twice daily by intraperitoneal injection. Tumors were measured three times per week using Vernier calipers and tumor volume calculated using the formula: Volume=(Length×Width^2/2), where length and width are the longest perpendicular sides of the tumor. Dosing continued twice daily until control tumors reached a size of 2000 mm^3 Statistical comparisons were made using a 2-way ANOVA with Bonferroni post-test.

[1] = molecular target: T1, recombinant form of glutaminase (GAC Delta N2) (Homo sapiens, UniProt O94925); test: Modified Recombinant Enzyme Assay - Time Dependence; type: biochemical; conditions: 60 min preincubation
T1 sequence (O94925 137-598 isoform O94925-3 limits assumed): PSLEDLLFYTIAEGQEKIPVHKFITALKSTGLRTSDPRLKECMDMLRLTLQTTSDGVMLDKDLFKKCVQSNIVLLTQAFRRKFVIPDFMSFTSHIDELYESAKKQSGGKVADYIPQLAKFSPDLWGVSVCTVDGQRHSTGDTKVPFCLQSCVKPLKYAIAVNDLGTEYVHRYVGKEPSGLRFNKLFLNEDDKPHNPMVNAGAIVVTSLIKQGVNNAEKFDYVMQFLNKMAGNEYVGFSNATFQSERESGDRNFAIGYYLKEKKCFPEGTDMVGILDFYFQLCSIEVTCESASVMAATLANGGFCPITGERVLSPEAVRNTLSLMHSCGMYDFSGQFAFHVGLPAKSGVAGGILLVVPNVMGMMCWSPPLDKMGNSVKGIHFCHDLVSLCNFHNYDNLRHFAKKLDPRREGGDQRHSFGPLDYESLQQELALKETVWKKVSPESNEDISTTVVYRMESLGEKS
Procedure: Compounds were assessed for their ability to inhibit the enzymatic activity of a recombinant form of glutaminase using a biochemical assay that couples the production of Glu (liberated by glutaminase) to GDH and measures the increase in fluorescence due to the reduction of NADP+ to NADPH.
3x-enzyme-containing solution was made by diluting recombinant glutaminase and GDH from Proteus species (Sigma Aldrich no. G4387) into glutaminase buffer to create a 6 nM glutaminase plus 18 units/mL GDH solution. […] When time-dependent effects of compound inhibition were tested, enzyme-containing solution was treated with inhibitor-containing solution for the indicated time prior to addition of substrate-containing solution.
IC50 Determination: The initial velocities of each progress curve were calculated using a straight line equation (Y=Yintercept+(slope)*X). Initial velocity values were plotted against compound concentration and fit to a four parameter dose response equation (% activity=Bottom+(Top−Bottom)/(1+10̂((LogIC50−X)*HillSlope))) to calculate an IC50 value.

[2] = molecular target: T2, recombinant form of Glutaminase 1 (GAC) (Homo sapiens, UniProt O94925); test: Recombinant Enzyme Assay - Time Dependence (60 min preincubation); type: biochemical; conditions: read-out: GAC Delta N2 IC50 60 min preinc
T2 sequence (O94925 137-598 isoform O94925-3 limits assumed): T1 sequence (O94925 137-598 isoform O94925-3 limits assumed)
Method in brief: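 Enzyme and compound preincubated 60 min at 20° C; reaction started with substrate buffer (50 mM Tris-HCl pH 8.0, 150 mM K2HPO4, 1 mM DTT, 20 mM L-glutamine, 2 mM NAD^+). NADH formation followed at 340 nm in kinetic mode for 15 min at 20° C; slopes (mAU/min) compared with DMSO and control-compound wells.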

Caco-2 cell monolayers = test: Caco-2 Permeability Assay; type: in vitro ADME; conditions: for Permeability Classification: absorption potential
Text: Caco-2 cells are commonly used in a confluent monolayer on a cell culture insert filter. When cultured in this format and under specific conditions, the cells become differentiated and polarized such that their phenotype, morphologically and functionally resembles the enterocytes lining the small intestine. The cell monolayer provides a physical and biochemical barrier to the passage of small molecules, and is widely used across the pharmaceutical industry as an in vitro model of the human small intestinal mucosa to predict the absorption of orally administered drugs (Hidalgo et al., Gastroenterology, 1989; Artursson, J. Pharm. Sci., 1990). The correlation between the in vitro apparent permeability (P ? app) across Caco-2 monolayers and the in vivo absorption is well established (Artursson et al., Biochem. Biophys. Res. Comm., 1991).
The present assay was used to determine the bidirectional permeability of the compounds of the invention through Caco-2 cell monolayers. Caco-2 cells were grown in confluent monolayers where the media of both the apical (A) and basolateral (B) sides were at pH 7.4. Compounds were dosed at 1 μM in the presence of 200 μM Lucifer Yellow, on the apical side (A→B) or the basolateral side (B→A) for assessment, in duplicate.
The absorption potential of compounds were classified as either Low (P-app <1×10^−6 CM/S) or High (P-app >1×10^−6 CM/S).

[3] = molecular target: T2, recombinant form of Glutaminase 1 (GAC); test: Recombinant Enzyme Assay (no preincubation); type: biochemical; conditions: read-out: GAC Delta N2 IC50 no preinc;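 also: GDH-coupled GAC activity read as absorbance at 340 nm in kinetic mode over 15 min at 20 °C, slopes compared with a DMSO-only control, lower slope means inhibition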
Procedure: Compounds were assessed for their ability to inhibit the enzymatic activity of a recombinant form of Glutaminase 1 (GAC) using a biochemical assay that couples the production of glutamate (liberated by GAC) to glutamate dehydrogenase (GDH) and measuring the change in absorbance for the reduction of NAD^+ to NADH. […] Enzymatic reaction was started with the addition of 50 μL of enzyme solution (50 mM Tris-HCl pH 8.0, 0.2 mM EDTA, 150 mM K2HPO4, 0.1 mg/ml BSA, 1 mM DTT, 10 ppm antifoam, 4 units/ml GDH, 4 mM adenosine diphosphate, and 4 nM GAC) and read in a Molecular Devices M5 plate reader at 20° C. The plate reader was configured to read absorbance (λ=340 nm) in kinetic mode for 15 minutes. Data was recorded as milli-absorbance units per minute and slopes were compared to a control compound and a DMSO-only control on the same plate. Compounds with slopes less than the DMSO control were considered inhibitors and plate variability was assessed using the control compound.

IC50 [1] [nM] | SMILES | Significant Efflux (Caco-2 cell monolayers) | Permeability Classification (Caco-2 cell monolayers) | further results
– | O=C(CCN1CCOCC1)OCC(C(=O)Nc1nnc(CCCCc2nnc(NC(=O)C(COC(=O)CCN3CCOCC3)c3ccccc3)s2)s1)c1ccccc1 (stereo not drawn) [Compound 188, {[5,5′-(butane-1,4-diyl)-bis(1,3,4-thiadiazole-5,2-diyl)]-bis(azanediyl)}-bis(3-oxo-2-phenylpropane-3,1-diyl)-bis(3-morpholinopropanoate)] | – | – | IC50 (P493-6 (myc "on") cells): 460 nM; tumor size (HCT116 cells): reduced tumor size
26 | O=C(Cc1cc(OC(F)(F)F)ccc1O)Nc1ccc(CCCCc2nnc(NC(=O)Cc3ccccn3)s2)nn1 [Compound 718] | – | – | –
– | CC(C(=O)Nc1nnc(CCCCc2ccc(NC(=O)Cc3ccccc3)nn2)s1)c1ccccc1 (stereo not drawn) [Compound 616] | Yes (efflux ratios being significant when greater than or equal to 3 when the Papp (B→A) was greater than or equal to 1×10^−6 cm/s) | High (High (P-app >1×10^−6 CM/S)) | IC50 [2]: 8 nM
20 | O=C(Cc1cc(OC(F)(F)F)ccc1F)Nc1ccc(CCCCc2nnc(NC(=O)Cc3ccccn3)s2)nn1 [Compound 720] | – | – | –
12 | Cc1cccc(CC(=O)Nc2nnc(CCCCc3ccc(NC(=O)Cc4cccc(OC(F)(F)F)c4)nn3)s2)n1 [Compound 728] | – | – | –
16 | O=C(Cc1ccc(Cl)c(OC(F)(F)F)c1)Nc1ccc(CCCCc2nnc(NC(=O)Cc3ccccn3)s2)nn1 [Compound 721] | – | – | –
50 | Nc1cccc(CC(=O)Nc2nnc(CCCCc3ccc(NC(=O)Cc4cccc(OC(F)(F)F)c4)nn3)s2)n1 [Compound 725] | – | – | –
42 | O=C(Cc1ccc(O)c(OC(F)(F)F)c1)Nc1ccc(CCCCc2nnc(NC(=O)Cc3ccccn3)s2)nn1 [Compound 723] | – | – | –
16 | COc1cc(CC(=O)Nc2ccc(CCCCc3nnc(NC(=O)Cc4ccccn4)s3)nn2)cc(OC(F)(F)F)c1 [Compound 729] | – | – | –
– | O=C(Cc1ccccc1Cl)Nc1ccc(CCCCc2nnc(NC(=O)Cc3ccccc3F)s2)nn1 [Compound 533] | Yes (efflux ratios being significant when greater than or equal to 3 when the Papp (B→A) was greater than or equal to 1×10^−6 cm/s) | High (High (P-app >1×10^−6 CM/S)) | –
– | O=C(Cc1cccc(OC(F)(F)F)c1)Nc1ccc(CCCCc2nnc(NC(=O)Cc3cccc(F)c3)s2)nn1 [Compound 679] | No | High (High (P-app >1×10^−6 CM/S)) | –
– | CC(C)(C)OC(=O)NCc1cccc(CC(=O)Nc2nnc(CCCCc3ccc(NC(=O)Cc4ccccc4)nn3)s2)c1 [Compound 339] | Yes (efflux ratios being significant when greater than or equal to 3 when the Papp (B→A) was greater than or equal to 1×10^−6 cm/s) | High (High (P-app >1×10^−6 CM/S)) | IC50 (P493-6 (myc "on") cells): 9 nM
140 | CC(C)(C)OC(=O)Nc1cccc(CC(=O)Nc2nnc(CCCCc3ccc(NC(=O)Cc4cccc(OC(F)(F)F)c4)nn3)s2)n1 [Compound 724] | – | – | –
33 | O=C(Cc1ccc(F)c(OC(F)(F)F)c1)Nc1ccc(CCCCc2nnc(NC(=O)Cc3ccccn3)s2)nn1 [Compound 719] | – | – | –
190 | O=C(Cc1ccccn1)Nc1nnc(CCCCc2ccc(NC(=O)C(O)c3ccccc3)nn2)s1 (stereo not drawn) [Compound 715] | – | – | –
– | O=C(Cc1cccc(OC(F)(F)F)c1)Nc1ccc(CCCCc2nnc(NC(=O)[C@H](O)c3ccccc3)s2)nn1 [Compound 705] | Yes (efflux ratios being significant when greater than or equal to 3 when the Papp (B→A) was greater than or equal to 1×10^−6 cm/s) | High (High (P-app >1×10^−6 CM/S)) | –
34 | COc1ccc(OC(F)(F)F)cc1CC(=O)Nc1ccc(CCCCc2nnc(NC(=O)Cc3ccccn3)s2)nn1 [Compound 717] | – | – | –
– | O=C(Cc1cccc(OC(F)(F)F)c1)Nc1ccc(CCCCc2nnc(NC(=O)Cc3ccccn3)s2)nn1 [Compound 670] | Yes (efflux ratios being significant when greater than or equal to 3 when the Papp (B→A) was greater than or equal to 1×10^−6 cm/s) | High (High (P-app >1×10^−6 CM/S)) | –
– | O=C(Cc1cccc(OC(F)(F)F)c1)Nc1ccc(CCCCc2nnc(NC(=O)Cc3ccccc3)s2)nn1 [Compound 585] | Yes (efflux ratios being significant when greater than or equal to 3 when the Papp (B→A) was greater than or equal to 1×10^−6 cm/s) | High (High (P-app >1×10^−6 CM/S)) | IC50 [2]: 6 nM
– | O=C(Cc1ccccc1)Nc1ccc(CCCCc2nnc(NC(=O)Cc3ccccc3)s2)nn1 [Compound 295] | Yes (efflux ratios being significant when greater than or equal to 3 when the Papp (B→A) was greater than or equal to 1×10^−6 cm/s) | High (High (P-app >1×10^−6 CM/S)) | IC50 [3]: 57 nM; IC50 [2]: 10 nM; IC50 (P493-6 (myc "on") cells): 39 nM
13 | O=C(Cc1cc(O)cc(OC(F)(F)F)c1)Nc1ccc(CCCCc2nnc(NC(=O)Cc3ccccn3)s2)nn1 [Compound 730] | – | – | –
– | O=C(Cc1ccccc1)Nc1ccc(CCCCc2nnc(NC(=O)C(O)c3cccc(Cl)c3)s2)nn1 (stereo not drawn) [Compound 318] | Yes (efflux ratios being significant when greater than or equal to 3 when the Papp (B→A) was greater than or equal to 1×10^−6 cm/s) | High (High (P-app >1×10^−6 CM/S)) | IC50 [3]: 180 nM; IC50 [2]: 6 nM; IC50 (P493-6 (myc "on") cells): 17 nM
– | O=C(Cc1cccc(OC(F)(F)F)c1)Nc1ccc(CCCCc2nnc(NC(=O)Cc3cccc(OC(F)(F)F)c3)s2)nn1 [Compound 660] | Yes (efflux ratios being significant when greater than or equal to 3 when the Papp (B→A) was greater than or equal to 1×10^−6 cm/s) | Low (Low (P-app <1×10^−6 CM/S)) | IC50 [2]: 25 nM
– | O=C(Cc1ccccc1)Nc1ccc(CCCCc2nnc(NC(=O)Cc3ccccn3)s2)nn1 [Compound 354] | Yes (efflux ratios being significant when greater than or equal to 3 when the Papp (B→A) was greater than or equal to 1×10^−6 cm/s) | High (High (P-app >1×10^−6 CM/S)) | IC50 (P493-6 (myc "on") cells): 47 nM
– | O=C(Cc1cccc(OC(F)(F)F)c1)Nc1ccc(CCCCc2nnc(NC(=O)C(O)c3cccc(Cl)c3)s2)nn1 (stereo not drawn) [Compound 447] | Yes (efflux ratios being significant when greater than or equal to 3 when the Papp (B→A) was greater than or equal to 1×10^−6 cm/s) | High (High (P-app >1×10^−6 CM/S)) | IC50 [2]: 5 nM
24 | COc1ccc(CC(=O)Nc2ccc(CCCCc3nnc(NC(=O)Cc4ccccn4)s3)nn2)cc1OC(F)(F)F [Compound 722] | – | – | –

— patent US20150004134A1, “TREATMENT OF CANCER WITH HETEROCYCLIC INHIBITORS OF GLUTAMINASE” (Calithera Biosciences, Inc., priority 2012, published 2015)
